A value given as a limit tells only on which side of the number the result lay.

Data on one compound can be found in patent publication US9867372B2, “Tetrazolinone compound and use of same” (SUMITOMO CHEMICAL COMPANY, LIMITED, priority 2013, dated 2018).

In the assay the test system is cucumber powdery mildew fungus (Sphaerotheca fuliginea, a QoI-resistant strain, cytochrome b position 143 mutated from glycine to alanine). Format: in vivo. The settings on record: 200 ppm, QoI-resistant strain (Test Example 2, Comparative Example 2).

Consider `Cn1nnn(-c2ccccc2COc2cccc(-c3ccccc3)c2)c1=O` [1-[2-(biphenyl-3-yloxymethyl)-phenyl]-4-methyl-1,4-dihydrotetrazol-5-one], for which the “area of lesion spots on the treated plant relative to that on an untreated plant” value was not below 70%.
